Data on 15 compounds can be found in patent publication US8507714B2, “7-membered ring compound and method of production and pharmaceutical application thereof” (Daiichi Sankyo Company, Limited, priority 2004, dated 2013).

For data set [1], the system named is DNFB-induced dermatitis in C3H/HeN mice. Conditions: 10 mg/kg orally once a day; 24 hours after DNFB application at fifth application; female C3H/HeN mice. The method, then: Effect of Test Compounds on Dermatitis Model Induced by Repeated Application of Hapten
As a control group, acetone:olive oil (1:3) was applied by the same protocol. Ear thickness was measured at every week before DNFB application and 24, 48 and 72 hours after DNFB application by using microgauge (Mitutoyo), and ear edema was evaluated by the increase in ear thickness compared to the ear thickness before the first DNFB application. […] The test compound was suspended in 0.5% hydroxypropylcellulose in distilled water (hereinafter referred to as “0.5% HPC-distilled water”) and was administered orally at doses of 2 and 10 mg/kg once a day, every day from just before the first application of hapten to the end of the experiment. Further, as a control, 0.5% HPC-distilled water instead of the test compound was administered by the same methods. The number of mice used in this experiment was seven per group.

As a reminder, the melting point is the temperature of the solid-liquid transition. `COC(=O)COc1ccc(Cl)cc1CC1CNC(=O)CN(S(=O)(=O)c2ccc(Cl)cc2)C1=O` (centres unmarked) displayed a melting point of 138 to 140 °C. Consider `CC[C@@H](NC(=O)N1CC(=O)NC[C@@H](Cc2cc(Cl)ccc2OC)C1=O)c1cccc(C(=O)O)c1` [Compound 91, 3-[(1R)-1-({[(6R)-6-(5-chloro-2-methoxybenzyl)-3,7-dioxo-1,4-diazepan-1-yl]carbonyl}amino)propyl]benzoic Acid], for which the melting point lay in the range of 121 to 123 °C. Moreover, the “inhibition rate of the skin reaction” value in data set [1] came to 26.1%. Compound `COc1ccc(Cl)cc1C[C@H]1CNC(=O)[C@@H](C)N(S(=O)(=O)c2ccc(Cl)cc2)C1=O` displayed a melting point of 78 to 80 °C.

The compound `O=C(CN1CC(Cc2ccccc2)C(=O)N(S(=O)(=O)c2ccc(Cl)cc2)CC1=O)NCc1ccccc1` (centres unmarked) showed a melting point of 187 to 190 °C.

For `Cc1cccc(CC2CNC(=O)CN(S(=O)(=O)c3ccc(Cl)cc3)C2=O)c1` (centres unmarked), the melting point was in the range of 64 to 66 °C. Take `CC[C@@H](NC(=O)N1CC(=O)NC[C@@H](Cc2cc(Cl)ccc2OC)C1=O)c1cccc(C(=O)[O-])c1.[Na+]`: the melting point lay in the range of 161 to 163 °C. On the same count and under the same terms, for `COc1ccc(F)cc1/C=C1\CNC(=O)CN(S(=O)(=O)c2ccc(Cl)s2)C1=O` the value was 150 to 153 °C. On to `CC[C@@H](NC(=O)N1CC(=O)NCC(Cc2cc(Cl)ccc2OC)C1=O)C(=O)Nc1ccc(C)c(C(=O)O)c1` (some centres unmarked), for which the melting point is 132 to 134 °C. `N#Cc1ccc(S(=O)(=O)N2CC(=O)NC/C(=C\c3ccccc3)C2=O)cc1`: the melting point is 239 °C (dec.). As for `COc1ccc(Cl)cc1CC1CNC(=O)CN(S(=O)(=O)c2ccc(Cl)c(N)c2)C1=O.Cl` (centres unmarked) [Compound 90, 4-[(3-amino-4-chlorophenyl)sulfonyl]-6-(5-chloro-2-methoxybenzyl)-1,4-diazepan-2,5-dione Hydrochloride], the “inhibition rate of the skin reaction” value in data set [1] is reported as 25.1%. `COC(=O)C[C@@H]1C(=O)NC[C@H](Cc2cc(F)ccc2OC)C(=O)N1S(=O)(=O)c1ccc(Cl)cc1` gave a melting point of 73 to 76 °C. For `COc1ccc(Cl)cc1CC1CNC(=O)CN(C(=O)Nc2cccc(NC(C)=O)c2)C1=O` (centres unmarked), the melting point lay within 130 to 131 °C.

`CC[C@@H](NC(=O)N1CC(=O)NCC(Cc2cc(Cl)ccc2OC)C1=O)C(=O)Nc1nnn[nH]1` (some centres unmarked) had a melting point of 141 to 142 °C. Take `COc1ccc(Cl)cc1CC1CNC(=O)CN(S(=O)(=O)c2ccc(Cl)cc2)C1=O` (centres unmarked) [Compound 29, 6-(5-chloro-2-methoxybenzyl)-4-[(4-chlorophenyl)sulfonyl]-1,4-diazepan-2,5-dione]: the melting point lay in the range of 110 to 112 °C. Also, the “inhibition rate of the skin reaction” value in data set [1] was found to be 31.0%.

`COc1cc(Cl)c(F)cc1CC1CNC(=O)CN(S(=O)(=O)c2ccc(Cl)cc2)C1=O` (centres unmarked) displayed a melting point of 80 to 90 °C.
